Legend:
DDR2 = target: T1, DDR2 (Homo sapiens, UniProt Q16832); assay: LanthaScreen Europium Kinase Binding assay, DDR2; conditions: 5 nM DDR2, 10 nM Kinase Tracer 178, 1 h at rt; Ki from IC50 by Cheng-Prusoff; read-out: Ki DDR2
T1 construct: purchased Life Technologies
T1 sequence (Q16832 22-855): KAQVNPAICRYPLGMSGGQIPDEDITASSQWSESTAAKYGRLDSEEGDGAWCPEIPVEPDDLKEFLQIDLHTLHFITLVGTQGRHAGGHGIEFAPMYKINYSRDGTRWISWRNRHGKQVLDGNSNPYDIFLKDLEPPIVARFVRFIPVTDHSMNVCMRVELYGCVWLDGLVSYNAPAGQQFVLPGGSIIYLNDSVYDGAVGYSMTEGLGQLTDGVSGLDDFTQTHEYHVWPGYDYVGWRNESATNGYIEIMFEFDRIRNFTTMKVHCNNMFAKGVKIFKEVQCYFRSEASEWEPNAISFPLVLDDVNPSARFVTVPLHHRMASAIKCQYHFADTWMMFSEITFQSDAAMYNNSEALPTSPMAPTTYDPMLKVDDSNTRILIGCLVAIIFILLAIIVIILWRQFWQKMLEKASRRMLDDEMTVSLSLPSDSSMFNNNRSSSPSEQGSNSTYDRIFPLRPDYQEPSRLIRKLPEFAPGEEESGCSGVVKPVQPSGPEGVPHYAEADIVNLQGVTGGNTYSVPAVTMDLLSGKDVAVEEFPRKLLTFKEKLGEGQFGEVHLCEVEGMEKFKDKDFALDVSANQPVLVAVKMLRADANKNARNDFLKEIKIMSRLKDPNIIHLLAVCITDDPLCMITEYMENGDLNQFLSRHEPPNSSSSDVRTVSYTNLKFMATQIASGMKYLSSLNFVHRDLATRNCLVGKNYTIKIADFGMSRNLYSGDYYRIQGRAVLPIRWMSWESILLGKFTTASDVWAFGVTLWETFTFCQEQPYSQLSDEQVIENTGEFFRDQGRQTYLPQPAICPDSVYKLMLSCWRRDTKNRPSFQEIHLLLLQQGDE
Protocol: (§1) DDR1 and DDR2 binding assays were performed using Life Technologies LanthaScreen™ Europium Kinase Binding assay. […] IC50 values were determined in GraphPad Prism 7.0 software, using 4 parameter model: log (inhibitor) vs. response. IC50 values were converted in Ki using the Cheng-Prusoff equation (Ki-IC50/(1+ [Tracer]/Kd).

DDR1 = target: T2, DDR1 (Homo sapiens, UniProt Q08345); assay: LanthaScreen Europium Kinase Binding assay, DDR1; conditions: 5 nM DDR1, 20 nM Kinase Tracer 178, 1 h at rt; Ki from IC50 by Cheng-Prusoff; read-out: Ki DDR1
T2 construct: purchased Carna Biosciences
T2 sequence (Q08345 19-913): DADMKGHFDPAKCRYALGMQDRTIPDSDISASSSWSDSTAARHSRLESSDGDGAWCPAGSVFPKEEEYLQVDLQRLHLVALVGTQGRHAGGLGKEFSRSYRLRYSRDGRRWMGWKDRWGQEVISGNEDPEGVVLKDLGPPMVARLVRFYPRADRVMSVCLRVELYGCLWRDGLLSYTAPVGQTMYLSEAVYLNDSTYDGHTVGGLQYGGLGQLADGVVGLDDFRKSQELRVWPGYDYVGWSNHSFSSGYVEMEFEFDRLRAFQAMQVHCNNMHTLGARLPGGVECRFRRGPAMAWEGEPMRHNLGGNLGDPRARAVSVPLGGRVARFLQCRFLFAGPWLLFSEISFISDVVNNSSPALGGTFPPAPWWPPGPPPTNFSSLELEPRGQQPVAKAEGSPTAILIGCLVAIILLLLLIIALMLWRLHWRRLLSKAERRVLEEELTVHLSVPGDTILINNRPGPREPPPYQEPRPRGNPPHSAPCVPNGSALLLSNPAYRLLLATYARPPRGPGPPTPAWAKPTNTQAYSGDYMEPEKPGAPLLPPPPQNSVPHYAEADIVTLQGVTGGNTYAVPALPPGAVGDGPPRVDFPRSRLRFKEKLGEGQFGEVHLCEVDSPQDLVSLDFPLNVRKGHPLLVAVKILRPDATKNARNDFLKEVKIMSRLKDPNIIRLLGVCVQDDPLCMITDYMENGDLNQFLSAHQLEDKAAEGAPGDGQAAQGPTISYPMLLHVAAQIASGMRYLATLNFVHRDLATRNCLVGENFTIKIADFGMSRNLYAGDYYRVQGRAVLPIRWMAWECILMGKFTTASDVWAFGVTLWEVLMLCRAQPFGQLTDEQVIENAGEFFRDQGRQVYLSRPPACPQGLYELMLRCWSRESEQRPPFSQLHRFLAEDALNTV
Protocol: as §1

Row | Ki (DDR2) | Ki (DDR1) | Compound
1 | 5 to 25 nM | < 5 nM | Cn1cc(C(F)(F)F)cc(NC(=O)NC2CC3(C2)CN(C(=O)c2cnn4ccsc24)C3)c1=O [Example 58, 1-(1-methyl-2-oxo-5-(trifluoromethyl)-1,2-dihydropyridin-3-yl)-3-(2-(pyrazolo[5,1-b]thiazole-7-carbonyl)-2-azaspiro[3.3]heptan-6-yl)urea]
2 | 5 to 25 nM | < 5 nM | O=C(Nc1cc(C(F)(F)F)ccn1)NC1CC2(C1)CN(C(=O)c1cnn3ccsc13)C2 [Example 59, 1-(2-(pyrazolo[5,1-b]thiazole-7-carbonyl)-2-azaspiro[3.3]heptan-6-yl)-3-(4-(trifluoromethyl)pyridin-2-yl)urea]
3 | < 5 nM | < 5 nM | CN(C(=O)Nc1cc(F)cc(C(F)(F)F)c1)C1CC2(C1)CN(C(=O)c1cnn3ccsc13)C2 [Example 60, 3-(3-fluoro-5-(trifluoromethyl)phenyl)-1-methyl-1-(2-(pyrazolo[5,1-b]thiazole-7-carbonyl)-2-azaspiro[3.3]heptan-6-yl)urea]
4 | 5 to 25 nM | < 5 nM | Cc1ccc(OC(F)(F)F)cc1NC(=O)NC1CC2(C1)CN(C(=O)c1cnn3ccn(C)c13)C2 [Example 61, 1-(2-(1-methyl-1H-imidazo[1,2-b]pyrazole-7-carbonyl)-2-azaspiro[3.3]heptan-6-yl)-3-(2-methyl-5-(trifluoromethoxy)phenyl)urea]
5 | 5 to 25 nM | < 5 nM | COc1ccc(OC(F)(F)F)cc1NC(=O)NC1CC2(C1)CN(C(=O)c1ncnc3ccsc13)C2 [Example 62, 1-(2-methoxy-5-(trifluoromethoxy)phenyl)-3-(2-(thieno[3,2-d]pyrimidine-4-carbonyl)-2-azaspiro[3.3]heptan-6-yl)urea]
6 | 5 to 25 nM | < 5 nM | Cn1ccn2ncc(C(=O)N3CC4(CC(NC(=O)Nc5cccc(C(F)F)c5)C4)C3)c12 [Example 63, 1-(3-(difluoromethyl)phenyl)-3-(2-(1-methyl-1H-imidazo[1,2-b]pyrazole-7-carbonyl)-2-azaspiro[3.3]heptan-6-yl)urea]
7 | 5 to 25 nM | < 5 nM | CN(C(=O)Nc1cc(F)cc(C(F)(F)F)c1)C1CC2(C1)CN(C(=O)c1cnn3ccn(C)c13)C2 [Example 64, 3-(3-fluoro-5-(trifluoromethyl)phenyl)-1-methyl-1-(2-(1-methyl-1H-imidazo[1,2-b]pyrazole-7-carbonyl)-2-azaspiro[3.3]heptan-6-yl)urea]
8 | 5 to 25 nM | < 5 nM | COc1ccc(C(F)(F)F)cc1NC(=O)NC1CC2(C1)CN(C(=O)c1cnn3ccn(C)c13)C2 [Example 65, 1-(2-methoxy-5-(trifluoromethyl)phenyl)-3-(2-(1-methyl-1H-imidazo[1,2-b]pyrazole-7-carbonyl)-2-azaspiro[3.3]heptan-6-yl)urea]
9 | 5 to 25 nM | < 5 nM | Cn1ccn2ncc(C(=O)N3CC4(CC(NC(=O)Nc5cc(C(F)F)ccn5)C4)C3)c12 [Example 66, 1-(4-(difluoromethyl)pyridin-2-yl)-3-(2-(1-methyl-1H-imidazo[1,2-b]pyrazole-7-carbonyl)-2-azaspiro[3.3]heptan-6-yl)urea]
10 | 5 to 25 nM | < 5 nM | Cn1ccn2ncc(C(=O)N3CC4(CC(NC(=O)Nc5cccc(OC(F)F)c5)C4)C3)c12 [Example 67, 1-(3-(difluoromethoxy)phenyl)-3-(2-(1-methyl-1H-imidazo[1,2-b]pyrazole-7-carbonyl)-2-azaspiro[3.3]heptan-6-yl)urea]
11 | 5 to 25 nM | < 5 nM | COc1ccc(OC(F)(F)F)cc1NC(=O)NC1CC2(C1)CN(C(=O)c1cnn3ccccc13)C2 [Example 68, 1-(2-methoxy-5-(trifluoromethoxy)phenyl)-3-(2-(pyrazolo[1,5-a]pyridine-3-carbonyl)-2-azaspiro[3.3]heptan-6-yl)urea]
12 | 5 to 25 nM | < 5 nM | COc1ccc(OC(F)(F)F)cc1NC(=O)NC1CC2(C1)CN(C(=O)c1cnn3ccc(N4CCN(C)CC4)cc13)C2 [Example 69, 1-(2-methoxy-5-(trifluoromethoxy)phenyl)-3-(2-(5-(4-methylpiperazin-1-yl)pyrazolo[1,5-a]pyridine-3-carbonyl)-2-azaspiro[3.3]heptan-6-yl)urea]
13 | < 5 nM | < 5 nM | CCn1ccn2ncc(C(=O)N3CC4(CC(NC(=O)Nc5cccc(C(F)(F)F)c5)C4)C3)c12 [Example 70, 1-(2-(1-ethyl-1H-imidazo[1,2-b]pyrazole-7-carbonyl)-2-azaspiro[3.3]heptan-6-yl)-3-(3-(trifluoromethyl)phenyl)urea]
14 | < 5 nM | < 5 nM | Cn1ccn2ncc(C(=O)N3CC4(CC(NC(=O)Nc5cc(C#N)cc(OC(F)(F)F)c5)C4)C3)c12 [Example 71, 1-(3-cyano-5-(trifluoromethoxy)phenyl)-3-(2-(1-methyl-1H-imidazo[1,2-b]pyrazole-7-carbonyl)-2-azaspiro[3.3]heptan-6-yl)urea]
15 | 5 to 25 nM | < 5 nM | Cn1ccn2ncc(C(=O)N3CC4(CC(NC(=O)Nc5cc(OC(F)(F)F)ccc5F)C4)C3)c12 [Example 72, 1-(2-fluoro-5-(trifluoromethoxy)phenyl)-3-(2-(1-methyl-1H-imidazo[1,2-b]pyrazole-7-carbonyl)-2-azaspiro[3.3]heptan-6-yl)urea]
16 | 5 to 25 nM | < 5 nM | Cn1ccn2ncc(C(=O)N3CC4(CC(NC(=O)Nc5cc(OC(F)(F)F)ccn5)C4)C3)c12 [Example 73, 1-(2-(1-methyl-1H-imidazo[1,2-b]pyrazole-7-carbonyl)-2-azaspiro[3.3]heptan-6-yl)-3-(4-(trifluoromethoxy)pyridin-2-yl)urea]
17 | < 5 nM | < 5 nM | O=C(Nc1cc(C(F)F)ccn1)NC1CC2(C1)CN(C(=O)c1ncnc3ccsc13)C2 [Example 74, 1-(4-(difluoromethyl)pyridin-2-yl)-3-(2-(thieno[3,2-d]pyrimidine-4-carbonyl)-2-azaspiro[3.3]heptan-6-yl)urea]
18 | 5 to 25 nM | < 5 nM | Cn1ccn2ncc(C(=O)N3CC4(CC(NC(=O)Nc5cc(C(F)(F)F)ccn5)C4)C3)c12 [Example 75, 1-(2-(1-methyl-1H-imidazo[1,2-b]pyrazole-7-carbonyl)-2-azaspiro[3.3]heptan-6-yl)-3-(4-(trifluoromethyl)pyridin-2-yl)urea]
19 | 5 to 25 nM | < 5 nM | COc1ccc(OC(F)(F)F)cc1NC(=O)N(C)C1CC2(C1)CN(C(=O)c1ncnc3ccsc13)C2 [Example 77, 3-(2-methoxy-5-(trifluoromethoxy)phenyl)-1-methyl-1-(2-(thieno[3,2-d]pyrimidine-4-carbonyl)-2-azaspiro[3.3]heptan-6-yl)urea]
20 | 25 to 100 nM | < 5 nM | COc1c(CO)cc(OC(F)(F)F)cc1NC(=O)NC1CC2(C1)CN(C(=O)c1cnn3ccn(C)c13)C2 [Example 78, 1-(3-(hydroxymethyl)-2-methoxy-5-(trifluoromethoxy)phenyl)-3-(2-(1-methyl-1H-imidazo[1,2-b]pyrazole-7-carbonyl)-2-azaspiro[3.3]heptan-6-yl)urea]
21 | < 5 nM | < 5 nM | O=C(Nc1cccc(C(F)(F)F)c1)NC1CC2(C1)CN(C(=O)c1ncnc3ccsc13)C2 [Example 79, 1-(2-(thieno[3,2-d]pyrimidine-4-carbonyl)-2-azaspiro[3.3]heptan-6-yl)-3-(3-(trifluoromethyl)phenyl)urea]

Reference: US20260285855A1, “HETEROARYL DERIVATIVES AS DDRS INHIBITORS” (CHIESI FARMACEUTICI S.P.A., priority 2023, published 2026)
